Among the test systems are MDA-MB-231 breast; 786-0 renal; SF-295 CNS; TK-10 renal; SF-268 CNS; MOLT-4 leukemia; U251 CNS; HCT-116 colon; PC-3 prostate; HCT-15 colon; SNB-19 CNS; NCI-H522 lung; MDA-MB-435; CAKI-1 renal; OVCAR-5 ovarian; SK-MEL-2 melanoma; BT-549 breast; K-562 leukemia; NCI-H226 lung.
Assay in all cases: NCI anticancer screen, dose series, 48 h

Structures are written as SMILES.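 Assay format: 96-well plates, 48-hour exposure. TGI is the concentration that stops growth completely.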

On to `Clc1c2ccccc2nc2c1[nH]c1ccccc12`, for which the TGI in the test on MDA-MB-231 breast was 46.7 µM; in the test with 786-0 renal, more than 100 µM; in the test on SF-295 CNS it was more than 100 µM; in the test with TK-10 renal, more than 100 µM; in the test on SF-268 CNS, more than 100 µM; in the test on MOLT-4 leukemia, 9.61 µM. The TGI in the test with U251 CNS, with HCT-116 colon, in the test on PC-3 prostate, in the test with HCT-15 colon, in the test on SNB-19 CNS and with NCI-H522 lung was more than 100 µM throughout. The TGI in the test with MDA-MB-435 is more than 100 µM; with CAKI-1 renal, 65.2 µM; with OVCAR-5 ovarian, more than 100 µM; in the test on SK-MEL-2 melanoma it was more than 100 µM; in the test with BT-549 breast it was more than 100 µM.
As to `N#Cc1c(N2CCN(c3ccc([N+](=O)[O-])cc3)CC2)[n+](=O)c2ccccc2n1[O-]`, the TGI in the test on MDA-MB-231 breast is more than 100 µM; in the test with K-562 leukemia, more than 100 µM; in the test with 786-0 renal, more than 100 µM; with SF-295 CNS, more than 100 µM; in the test with TK-10 renal, more than 100 µM; in the test on SF-268 CNS, 0.921 µM. The TGI in the test with MOLT-4 leukemia, in the test on U251 CNS, in the test on HCT-116 colon, with PC-3 prostate, in the test on HCT-15 colon and in the test with SNB-19 CNS was more than 100 µM each time. Also, the TGI in the test on NCI-H522 lung, in the test with MDA-MB-435, with CAKI-1 renal, with OVCAR-5 ovarian, in the test on SK-MEL-2 melanoma and in the test on BT-549 breast was more than 100 µM in each case.
As to `COC(=O)C1=C(CCC[C@H](C)O[Si](C)(C)C(C)(C)C)NC(=O)N2[C@@H](CCO)CC[C@H]12`, the TGI in the test on MDA-MB-231 breast was 31.9 µM; in the test on K-562 leukemia, more than 100 µM; with 786-0 renal it was 29.1 µM; with SF-295 CNS it was 25.1 µM; with TK-10 renal, 35 µM; in the test on SF-268 CNS it was 28.6 µM. Moreover, the TGI in the test on MOLT-4 leukemia is more than 100 µM; in the test on U251 CNS, 29.6 µM; with HCT-116 colon it was 20 µM; with HCT-15 colon, 28.9 µM; in the test with SNB-19 CNS, 29 µM; with NCI-H522 lung, 19.2 µM. Further, the TGI with MDA-MB-435 was determined as 39.7 µM; in the test with NCI-H226 lung it was 32.4 µM; in the test on CAKI-1 renal, 37.9 µM; in the test on OVCAR-5 ovarian, 33.7 µM; with BT-549 breast it was 28.4 µM.
As for `COc1ccc(/C(=N\Nc2ccccn2)c2ccccn2)cc1`, the TGI was more than 74.9 µM in the test on MDA-MB-231 breast; more than 100 µM in the test on K-562 leukemia; 24.5 µM in the test on 786-0 renal; 3.54 µM in the test with SF-295 CNS; 13.1 µM with SF-268 CNS; more than 58.3 µM in the test on MOLT-4 leukemia. Further, the TGI is 17.1 µM in the test on U251 CNS; 17.4 µM in the test with HCT-116 colon; more than 100 µM with PC-3 prostate; 12.5 µM in the test with HCT-15 colon; more than 63.9 µM with SNB-19 CNS; 14.8 µM in the test with NCI-H522 lung. Besides, the TGI in the test with MDA-MB-435 was 22.3 µM; in the test on CAKI-1 renal, 22.6 µM; in the test with OVCAR-5 ovarian it was 98.9 µM; in the test with SK-MEL-2 melanoma, 30.2 µM; with BT-549 breast it was more than 100 µM.
As for `CC[C@H](C)[C@H](NC(=O)[C@@]1(O)[C@H](O)[C@]2(CC)C=CCN3CC[C@@]4(c5cc(Br)c(OC)cc5N(C)[C@@H]14)[C@@H]32)C(=O)OC`, the TGI in the test with MDA-MB-231 breast is 46.5 µM; with K-562 leukemia, more than 100 µM; in the test on 786-0 renal it was more than 100 µM; in the test on SF-295 CNS it was more than 100 µM; with TK-10 renal, more than 100 µM; with SF-268 CNS, more than 100 µM. In addition, the TGI with MOLT-4 leukemia, in the test with U251 CNS, in the test on HCT-116 colon, in the test on PC-3 prostate, in the test with HCT-15 colon and in the test on SNB-19 CNS was more than 100 µM throughout. Moreover, the TGI with NCI-H522 lung is more than 100 µM; in the test on MDA-MB-435, 71.3 µM; in the test with CAKI-1 renal, more than 100 µM; in the test on OVCAR-5 ovarian, more than 100 µM; in the test on SK-MEL-2 melanoma it was more than 100 µM; in the test with BT-549 breast it was more than 100 µM.
Take `CCCCC(=O)Nc1ccc2c(C)cc(-c3ccc(-c4cc(-c5ccc(C)cc5)cc(-c5ccc(-c6cc(C)c7ccc(NC(=O)CCCC)nc7n6)cc5)n4)cc3)nc2n1`: the TGI in the test on MDA-MB-231 breast, with K-562 leukemia, in the test with 786-0 renal, in the test on SF-295 CNS, in the test with TK-10 renal and with SF-268 CNS was more than 100 µM in each case. The TGI in the test on MOLT-4 leukemia, with U251 CNS, with HCT-116 colon, with PC-3 prostate, in the test on HCT-15 colon and in the test on SNB-19 CNS was more than 100 µM in each case. The TGI in the test on NCI-H522 lung, in the test with MDA-MB-435, in the test with CAKI-1 renal, in the test with OVCAR-5 ovarian, with SK-MEL-2 melanoma and with BT-549 breast was more than 100 µM each time.
As to `[N-]=[N+]=CC(=O)CCC(=O)N(c1ccccc1)c1ccccc1`, the TGI with MDA-MB-231 breast, in the test with K-562 leukemia, in the test on 786-0 renal, in the test on SF-295 CNS, with TK-10 renal and in the test on SF-268 CNS was more than 10 µM in each case. Besides, the TGI with MOLT-4 leukemia, in the test on U251 CNS, with HCT-116 colon, with PC-3 prostate, in the test on HCT-15 colon and in the test on SNB-19 CNS was more than 10 µM in each case. Further, the TGI with MDA-MB-435, in the test with NCI-H226 lung, with OVCAR-5 ovarian, in the test with SK-MEL-2 melanoma and in the test on BT-549 breast was more than 10 µM in each case.
Take `CCOC(=O)c1cc(C2CCN(Cc3ccccc3)C2=S)c(C(=O)C=[N+]=[N-])[nH]1` (stereo unspecified): the TGI was more than 100 µM in the test on MDA-MB-231 breast; more than 100 µM in the test on K-562 leukemia; 85.4 µM with 786-0 renal; 66.8 µM in the test on SF-295 CNS; more than 100 µM in the test on TK-10 renal; 73.9 µM in the test with SF-268 CNS. Also, the TGI is more than 100 µM in the test on MOLT-4 leukemia; more than 100 µM in the test with U251 CNS; more than 100 µM in the test with HCT-116 colon; more than 100 µM with PC-3 prostate; 53.8 µM in the test with HCT-15 colon; more than 100 µM in the test on SNB-19 CNS. For the same molecule, the TGI was 46.7 µM with NCI-H522 lung; more than 100 µM in the test with MDA-MB-435; more than 100 µM with CAKI-1 renal; more than 100 µM in the test with OVCAR-5 ovarian; 63 µM with SK-MEL-2 melanoma; 67.6 µM in the test with BT-549 breast.
Regarding `COc1ccc(C(=O)/C=C/c2ccc(OCC(=N)N)cc2)cc1`, the TGI in the test with MDA-MB-231 breast is 27.8 µM; in the test on K-562 leukemia it was 20.1 µM; in the test on 786-0 renal, 29.9 µM; in the test with SF-295 CNS it was 30 µM; with TK-10 renal, 38.9 µM; in the test on SF-268 CNS it was 35.6 µM. For the same molecule, the TGI in the test with MOLT-4 leukemia amounted to 30.9 µM; in the test on U251 CNS, 27.7 µM; in the test on HCT-116 colon, 16.7 µM; in the test with PC-3 prostate it was 27.9 µM; with HCT-15 colon, 31.7 µM; with SNB-19 CNS, 29.2 µM. The TGI in the test with MDA-MB-435 came out at 36.8 µM; with NCI-H226 lung, 34.1 µM; in the test with OVCAR-5 ovarian, 83.9 µM; in the test on BT-549 breast, 31.7 µM.
Take `COC(=O)/C(C#N)=C(\N)c1c(C)c2ccccc2oc1=N`: the TGI with MDA-MB-231 breast, in the test with K-562 leukemia, with 786-0 renal, in the test on SF-295 CNS, in the test with TK-10 renal and in the test on MOLT-4 leukemia was more than 100 µM throughout. Further, the TGI in the test on U251 CNS, with HCT-116 colon, in the test on PC-3 prostate, with HCT-15 colon, in the test on SNB-19 CNS and in the test on NCI-H522 lung was more than 100 µM in each case. Moreover, the TGI with MDA-MB-435, in the test on OVCAR-5 ovarian, with SK-MEL-2 melanoma and in the test on BT-549 breast was more than 100 µM throughout.
For the molecule `Cc1cc2nc(N3C(=O)/C(=C/c4ccc(N(C)C)cc4)N=C3c3ccccc3)sc2cc1C`, the TGI in the test on MDA-MB-231 breast is 96 µM; in the test on K-562 leukemia, more than 100 µM; with 786-0 renal, 49.9 µM; in the test with SF-295 CNS, more than 100 µM; with TK-10 renal it was more than 100 µM; in the test on SF-268 CNS, more than 100 µM. Further, the TGI with MOLT-4 leukemia was 49.8 µM; with U251 CNS it was more than 100 µM; in the test on HCT-116 colon, 43 µM; in the test with PC-3 prostate, 43.5 µM; in the test with HCT-15 colon, more than 100 µM; with SNB-19 CNS, more than 100 µM. Moreover, the TGI in the test on MDA-MB-435 is 51 µM; with CAKI-1 renal it was more than 100 µM; in the test with OVCAR-5 ovarian it was 84.2 µM; with SK-MEL-2 melanoma, 65.3 µM; in the test on BT-549 breast, more than 100 µM.
For `O=c1c2cc(I)ccc2nc(-c2cccs2)n1/N=C/c1ccccc1`, the TGI in the test on K-562 leukemia, in the test on 786-0 renal, in the test on SF-295 CNS, with TK-10 renal, in the test on SF-268 CNS and in the test on U251 CNS was more than 100 µM in each case. The TGI with HCT-116 colon, with PC-3 prostate, in the test with HCT-15 colon, with SNB-19 CNS, in the test with NCI-H522 lung and in the test on MDA-MB-435 was more than 100 µM throughout. The TGI with NCI-H226 lung, with CAKI-1 renal, with OVCAR-5 ovarian, in the test with SK-MEL-2 melanoma and in the test on BT-549 breast was more than 100 µM throughout.
